These compounds were tested against human TRPV1 (Homo sapiens (Human), UniProt Q8NER1). Settings: read-out: IC50 (μM), antagonist effect against human TRPV1; CHO cells expressing human TrpV1; stimulated with 2.5 μM NADA (EC80); mean of at least three independent experiments.
human TRPV1, sequence (Q8NER1 whole entry): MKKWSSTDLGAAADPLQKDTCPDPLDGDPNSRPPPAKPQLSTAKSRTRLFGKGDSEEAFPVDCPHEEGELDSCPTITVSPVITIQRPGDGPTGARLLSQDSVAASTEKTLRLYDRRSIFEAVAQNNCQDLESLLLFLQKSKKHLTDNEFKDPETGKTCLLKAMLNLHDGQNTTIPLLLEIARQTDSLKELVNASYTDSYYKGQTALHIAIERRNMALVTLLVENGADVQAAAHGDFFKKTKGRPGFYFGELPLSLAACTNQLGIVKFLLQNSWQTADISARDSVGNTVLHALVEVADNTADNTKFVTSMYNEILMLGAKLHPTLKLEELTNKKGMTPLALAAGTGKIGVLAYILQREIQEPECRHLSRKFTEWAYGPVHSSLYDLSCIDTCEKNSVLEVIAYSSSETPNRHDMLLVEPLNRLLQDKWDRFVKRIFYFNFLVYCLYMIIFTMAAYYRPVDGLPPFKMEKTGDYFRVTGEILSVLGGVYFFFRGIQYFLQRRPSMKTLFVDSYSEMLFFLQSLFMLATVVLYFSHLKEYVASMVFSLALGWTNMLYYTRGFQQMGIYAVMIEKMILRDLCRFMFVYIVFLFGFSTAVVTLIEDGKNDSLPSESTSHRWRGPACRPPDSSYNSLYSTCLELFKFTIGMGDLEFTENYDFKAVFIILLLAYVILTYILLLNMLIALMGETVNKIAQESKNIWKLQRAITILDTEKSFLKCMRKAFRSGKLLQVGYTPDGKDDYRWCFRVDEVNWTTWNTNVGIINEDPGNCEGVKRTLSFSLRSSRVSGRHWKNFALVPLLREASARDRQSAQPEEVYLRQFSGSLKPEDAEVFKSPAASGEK
Description: Chinese Hamster Ovary (CHO) cells transfected to express human TrpV1 receptor (which are herein referred to as CHO-huTrpV1 cells), were grown in F-12 Ham's Nutrient Mixture media (HyClone SH30026.01) supplemented with 10% Fetal Bovine Serum (Invitrogen #26140-079), 1% Antibiotic/antimycotic (Invitrogen #15240-062) and 500 ug/mL geneticin (ThermoFisher scientific #1031035). Cells were grown in T-75 flasks at 37° C. incubator with 5% CO2. The cells were passaged twice a week at a ratio of 1:10 to 1:20 to maintain steady growth. For experimentation, cells were harvested at approximately 80% confluency and plated onto 384 well black cell culture plates (cat #781091, Greinier Bio-One Inc.) at 15,000 cells per well in 20 μl media and grown overnight.
The loading dye was prepared following instruction of Calcium 6 assay kit (Molecular Probes, #R8190): 10 ml buffer from bottle B was added to 1 vial of bottle A (adapted to room temperature from −20° C.) and mixed well, then 2.5 mM of fresh prepared probenecid, was added and mixed well. 20 μl/well of loading dye was added on top of the cells, and incubated at 37° C. for 1 hour 30 min.
Assay buffer preparation: 1×HBSS, 2 mM HEPES, 0.1% BSA plus 2.5 mM freshly prepared probenecid (Invitrogen, #P36400). 25 μl/well assay buffer in 384 well clear plate (cat #782281, Greiner Bio-one) was dispensed with buffer distributor (Multidrop ComB1 from Thermo Scientific). The compounds were in 384 Echo plate (cat #LPL0200, Labcyte) and the starting concentration of compound was 10 mM, then 1 to 3 serial dilution in 100% DMSO, 8 ul/well). 125 nl compounds was transferred to the 384 well plate containing 25 μl/well buffer with Echo® 555 Liquid Handler (Labcyte), such that the compound concentration was 5 fold of final concentration. The plate was shook slowly at 40 rpm/min for 10 min to mix. 10 μl of 5 fold compound in the buffer was transferred to the cell plate (containing 20 μl cells and 20 μl dye) using Vertical Pipetting Station 384ST (Agilent Technologies). Six fold of final concentration of NADA (N-arachidonyl dopamine, cat #A8848, Sigma) in the assay buffer was prepared and 30 μl/well was distributed in 384 well clear plate.
After compounds were added to the cell plate with loading dye, within 10-15 minutes, cell plate and plate containing NADA was placed into the FLIPR (Fluorescent Imaging Plate Reader) instrument (Tetra System, Molecular device). The TRPV1 receptor was stimulated by application of 10 μl per well of NADA. For testing the effect of compounds for possible antagonism, 2.5 μM NADA was used at the EC80 concentration.
For determination of antagonist IC50 values (concentration of antagonist that inhibits response to NADA by 50%), at least 10 antagonist concentration were measured in triplicate. The response in the presence of the antagonist was calculated as a percentage of the control response to NADA and was plotted against the concentration of the antagonist. The IC50 was estimated by non-linear regression analysis to sigmoidal-logistic curves by HELIOS (PROD 2) system. These values were averaged (means and standard error of the mean) for at least three independent experiments.

Q: For Fc1ccc(O[C@H]2C[C@H](NCc3c(F)ccc4cncnc34)C2)cc1C(F)(F)F [Example 102, (1r,3r)-3-(4-fluoro-3-(trifluoromethyl)phenoxy)-N-((7-fluoroquinazolin-8-yl)methyl)cyclobutan-1-amine], which IC50 is on record?
A: 0.0603 µM

Q: Which IC50 does the source give for O=C(Cc1c(F)cc(CO)c2cnccc12)N[C@H]1C[C@H](Oc2ccc(F)c(C(F)(F)F)c2)C1 [Example 103, N-((1r,3r)-3-(4-fluoro-3-(trifluoromethyl)phenoxy)cyclobutyl)-2-(6-fluoro-8-(hydroxymethyl)isoquinolin-5-yl)acetamide] here?
A: 0.00044 µM

Q: With NCC(O)c1cc(F)c(CN[C@H]2C[C@H](Oc3ccc(F)c(C(F)(F)F)c3)C2)c2ccncc12 (some centres unmarked) [Example 104, 2-amino-1-(6-fluoro-5-((((1r,3r)-3-(4-fluoro-3-(trifluoromethyl)phenoxy)cyclobutyl)amino)methyl)isoquinolin-8-yl)ethan-1-ol] as the compound, how does the IC50 read?
A: 2.15 µM

Q: Fc1ccc(CO[C@H]2C[C@H](NCc3c(F)ccc4cnccc34)C2)c(F)c1 [Example 105, (1r,3r)-3-((2,4-difluorobenzyl)oxy)-N-((6-fluoroisoquinolin-5-yl)methyl)cyclobutan-1-amine] was tested. Which IC50 did it give?
A: 1.28 µM

Q: Which IC50 does the source give for Cc1cc(O[C@H]2C[C@H](NCc3c(F)ccc4cnccc34)C2)cc(C(F)(F)F)n1 [Example 106, (1r,3r)-N-((6-fluoroisoquinolin-5-yl)methyl)-3-((2-methyl-6-(trifluoromethyl)pyridin-4-yl)oxy)cyclobutan-1-amine] here?
A: 1.65 µM

Q: Which IC50 does the source give for Fc1ccc2cnccc2c1CN[C@H]1C[C@H](Oc2nc(C(F)(F)F)cs2)C1 [Example 107, (1r,3r)-N-((6-fluoroisoquinolin-5-yl)methyl)-3-((4-(trifluoromethyl)thiazol-2-yl)oxy)cyclobutan-1-amine] here?
A: 1.91 µM

Q: With N#Cc1ncc(O[C@H]2C[C@H](NCc3c(F)ccc4cnccc34)C2)cn1 [Example 108, 5-((1r,3r)-3-(((6-fluoroisoquinolin-5-yl)methyl)amino)cyclobutoxy)pyrimidine-2-carbonitrile] as the compound, how does the IC50 read?
A: 2.51 µM

Q: For Nc1nccc2c(CN[C@H]3C[C@H](Oc4ccc(F)c(C(F)(F)F)c4)C3)cccc12 [Example 109, 5-((((1r,3r)-3-(4-fluoro-3-(trifluoromethyl)phenoxy)cyclobutyl)amino)methyl)isoquinolin-1-amine], which IC50 is on record?
A: 1.46 µM

Q: How did the IC50 turn out when Fc1ccc2cnccc2c1CN[C@H]1C[C@H](Oc2ccc(C(F)F)nc2)C1 [Example 110, (1r,3r)-3-((6-(difluoromethyl)pyridin-3-yl)oxy)-N-((6-fluoroisoquinolin-5-yl)methyl)cyclobutan-1-amine] was run?
A: 1.38 µM

Q: Which IC50 does the source give for Fc1ccc2cnccc2c1CN[C@H]1C[C@H](Oc2ccnc(C(F)F)c2)C1 [Example 111, (1r,3r)-3-((2-(difluoromethyl)pyridin-4-yl)oxy)-N-((6-fluoroisoquinolin-5-yl)methyl)cyclobutan-1-amine] here?
A: 1.65 µM

Q: For FC(F)(F)c1ccc(O[C@H]2C[C@H](NCc3cccc4cnccc34)C2)cn1 [Example 112, (1r,3r)-N-(isoquinolin-5-ylmethyl)-3-((6-(trifluoromethyl)pyridin-3-yl)oxy)cyclobutan-1-amine], which IC50 is on record?
A: 2.69 µM

Reference: patent US11845730B2, “1,3-substituted cyclobutyl derivatives and uses thereof” (Novartis AG, priority 2021, dated 2023)
